From US20260226068A1, “IMIDAZOTRIAZINE IL-17A MODULATORS AND USES THEREOF” (DICE ALPHA, INC., priority 2023, published 2026)

What was measured:
[1] = target: T1, IL-17A/F (Homo sapiens, UniProt Q16552+Q96PD4); experiment: IL-17A/F HEK-Blue cell assay (SEAP reporter); format: cell-based; conditions: HEK-Blue IL-17A reporter cells, IL17A/F 5 ng/mL, 20 hours, SEAP read at A630; read-out: HEK-Blue IL17AF (IC50 for IL-17A/F inhibition)
T1 construct: purchased R&D Systems
T1 sequence (Q16552 24-155): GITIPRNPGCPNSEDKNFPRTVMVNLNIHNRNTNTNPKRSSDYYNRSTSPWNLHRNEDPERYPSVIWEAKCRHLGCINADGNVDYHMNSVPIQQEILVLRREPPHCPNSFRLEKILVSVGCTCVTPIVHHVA
T1 sequence (Q96PD4 31-163): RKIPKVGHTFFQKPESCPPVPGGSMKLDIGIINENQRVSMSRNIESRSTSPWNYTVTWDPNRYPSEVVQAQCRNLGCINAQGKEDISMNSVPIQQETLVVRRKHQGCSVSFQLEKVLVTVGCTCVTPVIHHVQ
Experimental: (§1) The HEK-Blue IL-17A reporter cell line (Fisher #NC 1408637) was used for cell-based IL-17A/A inhibition assays. Cells were grown and prepared for assays according to the manufacturer's instructions. This cell line consists of HEK 293 cells that were designed to expressed IL-17RA, IL-17RC, and the Act1 adapter molecule, the combination of which, when stimulated by IL-17A/A or IL17A/F activates a […] promoter and drives expression of the recombinant Secreted Alkaline Phosphatase (SEAP) gene. Media from the cells is then added to a development reagent (Quanti-Blue Substrate, Fisher #NC971 1613), and read at A630.
(§2) Compounds were dispensed in DMSO to an empty clear 384-well tissue culture plate in a titration ranging from 10 μM to 27 pM, with DMSO added to every well to a final concentration of […]. Cells were then added to the plate (45 μL/well at a concentration of 280,000 cells/mL). IL17A/A (Genscript #Z03228) or IL17A/F (R&D Systems) was added to the plate to a final concentration of 5 ng/mL and a final well volume of 50 μL. The cells, compound, and IL-17A/A or IL17A/F were then incubated for 20 hours before media was removed for SEAP analysis. The resulting inhibition curve was then analyzed using Dotmatics' integrated 4-parameter fit screening protocol to generate IC50 values.
(§3) Table 2 includes IC50 values for IL-17A/A and IL-17A/F inhibition of selected compounds; with compounds having a IC50 of A<100 nM; B 100-1000 nM; and C>1000 nM.

[2] = target: T2, IL-17A/A (Homo sapiens, UniProt Q16552); experiment: IL-17A/A HEK-Blue cell assay (SEAP reporter); format: cell-based; conditions: HEK-Blue IL-17A reporter cells, IL17A/A 5 ng/mL, 20 hours, SEAP read at A630; read-out: HEK-Blue IL17AA (IC50 for IL-17A/A inhibition)
T2 construct: purchased Genscript Z03228
T2 sequence (Q16552 24-155): T1 sequence (Q16552 24-155)
Experimental: as §1, §2, §3

SMILES	IC50 [1] [nM]	IC50 [2] [nM]
CCn1nccc1C(=O)N[C@H](c1cn2nc(C[C@H]3C[C@@H](C(F)(F)F)CNC3=O)c(C3CCOC3)nc2n1)[C@@H]1CCCC(F)(F)C1 (single isomer, unassigned) [Compound 72]	100 to 1000	< 100
CCn1nccc1C(=O)N[C@H](c1cn2nc(C[C@H]3C[C@@H](C(F)(F)F)CNC3=O)c(C3CCOC3)nc2n1)[C@@H]1CCCC(F)(F)C1 (single isomer, unassigned) [Compound 73]	100 to 1000	< 100
O=C(N[C@H](c1cn2nc(C[C@H]3C[C@@H](C(F)(F)F)CNC3=O)cnc2n1)C1CCC(F)(F)CC1)c1nonc1[C@H]1CC1(F)F (single isomer, unassigned) [Compound 76]	> 1000	100 to 1000
O=C(N[C@H](c1cn2nc(C[C@H]3C[C@@H](C(F)(F)F)CNC3=O)cnc2n1)C1CCC(F)(F)CC1)c1nonc1[C@@H]1CC1(F)F (single isomer, unassigned) [Compound 77]	> 1000	< 100
CC(C)n1nccc1C(=O)N[C@H](c1cn2nc(CC3C[C@@H](C(F)(F)F)CNC3=O)c(N3CCOCC3)nc2n1)C1CCC(F)(F)CC1 (single isomer, unassigned) [Compound 79]	100 to 1000	< 100
CC(C)n1nccc1C(=O)N[C@H](c1cn2nc(CC3C[C@@H](C(F)(F)F)CNC3=O)c(N3CCOCC3)nc2n1)C1CCC(F)(F)CC1 (single isomer, unassigned) [Compound 80]	> 1000	< 100
CCn1nccc1C(=O)N[C@H](c1cn2nc(CC3C[C@@H](C(F)(F)F)CNC3=O)c(N3CC4CC(C3)O4)nc2n1)C1CCC(F)(F)CC1 (single isomer, unassigned) [Compound 81]	100 to 1000	< 100
CCn1nccc1C(=O)N[C@H](c1cn2nc(CC3C[C@@H](C(F)(F)F)CNC3=O)c(N3CC4CC(C3)O4)nc2n1)C1CCC(F)(F)CC1 (single isomer, unassigned) [Compound 82]	> 1000	< 100
CCn1nccc1C(=O)N[C@H](c1cn2nc(CC3C[C@@H](C(F)(F)F)CNC3=O)c(N3C[C@H]4CC[C@@H](C3)O4)nc2n1)C1CCC(F)(F)CC1 (single isomer, unassigned) [Compound 83]	100 to 1000	< 100
CCn1nccc1C(=O)N[C@H](c1cn2nc(CC3C[C@@H](C(F)(F)F)CNC3=O)c(N3C[C@H]4CC[C@@H](C3)O4)nc2n1)C1CCC(F)(F)CC1 (single isomer, unassigned) [Compound 84]	100 to 1000	< 100
CCn1nccc1C(=O)N[C@H](c1cn2nc(CC3C[C@@H](C(F)(F)F)CNC3=O)c(N3C[C@H]4C[C@@H]3CO4)nc2n1)C1CCC(F)(F)CC1 (single isomer, unassigned) [Compound 85]	> 1000	100 to 1000
CCn1nccc1C(=O)N[C@H](c1cn2nc(CC3C[C@@H](C(F)(F)F)CNC3=O)c(N3C[C@H]4C[C@@H]3CO4)nc2n1)C1CCC(F)(F)CC1 (single isomer, unassigned) [Compound 86]	100 to 1000	< 100
CCn1nccc1C(=O)N[C@H](c1cn2nc(CC3C[C@@H](C(F)(F)F)CNC3=O)c(N3CCOCC3)nc2n1)[C@H]1CCCC(F)(F)C1 (single isomer, unassigned) [Compound 90]	100 to 1000	< 100
CCn1nccc1C(=O)N[C@H](c1cn2nc(CC3C[C@@H](C(F)(F)F)CNC3=O)c(N3CCOCC3)nc2n1)[C@H]1CCCC(F)(F)C1 (single isomer, unassigned) [Compound 91]	100 to 1000	< 100
CCn1nccc1C(=O)N[C@H](c1cn2nc(CC3C[C@@H](C(F)(F)F)CNC3=O)c(N3CC4CC(C3)O4)nc2n1)[C@H]1CCCC(F)(F)C1 (single isomer, unassigned) [Compound 92]	100 to 1000	< 100
CCn1nccc1C(=O)N[C@H](c1cn2nc(CC3C[C@@H](C(F)(F)F)CNC3=O)c(N3CC4CC(C3)O4)nc2n1)[C@H]1CCCC(F)(F)C1 (single isomer, unassigned) [Compound 93]	100 to 1000	< 100

SMILES	IC50 [1] [nM]	IC50 [2] [nM]
CCn1nccc1C(=O)N[C@H](c1cn2nc(CC3C[C@@H](C(F)(F)F)CNC3=O)c(N3CCOCC3)nc2n1)[C@@H]1CCCC(F)(F)C1 (single isomer, unassigned) [Compound 94]	100 to 1000	< 100
CCn1nccc1C(=O)N[C@H](c1cn2nc(CC3C[C@@H](C(F)(F)F)CNC3=O)c(N3CCOCC3)nc2n1)[C@@H]1CCCC(F)(F)C1 (single isomer, unassigned) [Compound 95]	100 to 1000	< 100
CCn1nccc1C(=O)N[C@H](c1cn2nc(CC3C[C@@H](C(F)(F)F)CNC3=O)c(N3CC4CC(C3)O4)nc2n1)[C@@H]1CCCC(F)(F)C1 (single isomer, unassigned) [Compound 96]	100 to 1000	< 100
CCn1nccc1C(=O)N[C@H](c1cn2nc(CC3C[C@@H](C(F)(F)F)CNC3=O)c(N3CC4CC(C3)O4)nc2n1)[C@@H]1CCCC(F)(F)C1 (single isomer, unassigned) [Compound 97]	> 1000	< 100
CCn1nccc1C(=O)N[C@H](c1cn2nc(CC3C[C@@H](C(F)(F)F)CNC3=O)c(N3C[C@@H]4C[C@H]3CO4)nc2n1)C1CCC(F)(F)CC1 (single isomer, unassigned) [Compound 98]	< 100	< 100
CCn1nccc1C(=O)N[C@H](c1cn2nc(CC3C[C@@H](C(F)(F)F)CNC3=O)c(N3C[C@@H]4C[C@H]3CO4)nc2n1)C1CCC(F)(F)CC1 (single isomer, unassigned) [Compound 99]	> 1000	< 100
CC(C)n1nccc1C(=O)N[C@H](c1cn2nc(CC3C[C@@H](C(F)(F)F)CNC3=O)c(N3CCOCC3)nc2n1)[C@H]1CC[C@H](C)CC1 (single isomer, unassigned) [Compound 100]	< 100	< 100
CC(C)n1nccc1C(=O)N[C@H](c1cn2nc(CC3C[C@@H](C(F)(F)F)CNC3=O)c(N3CCOCC3)nc2n1)[C@H]1CC[C@H](C)CC1 (single isomer, unassigned) [Compound 101]	100 to 1000	< 100
CCn1nccc1C(=O)N[C@H](c1cn2nc(CC3C[C@@H](C(F)(F)F)CNC3=O)c(N3CC4CC(C3)O4)nc2n1)[C@H]1CC[C@H](C)CC1 (single isomer, unassigned) [Compound 102]	< 100	< 100
CCn1nccc1C(=O)N[C@H](c1cn2nc(CC3C[C@@H](C(F)(F)F)CNC3=O)c(N3CC4CC(C3)O4)nc2n1)[C@H]1CC[C@H](C)CC1 (single isomer, unassigned) [Compound 103]	100 to 1000	< 100
CCn1nccc1C(=O)N[C@H](c1cn2nc(CC3C[C@@H](C(F)(F)F)CNC3=O)c(N3CC4CCC(C3)O4)nc2n1)[C@H]1CC[C@H](C)CC1 (single isomer, unassigned) [Compound 104]	< 100	< 100
CCn1nccc1C(=O)N[C@H](c1cn2nc(CC3C[C@@H](C(F)(F)F)CNC3=O)c(N3CC4CCC(C3)O4)nc2n1)[C@H]1CC[C@H](C)CC1 (single isomer, unassigned) [Compound 105]	100 to 1000	< 100
CCn1nccc1C(=O)N[C@H](c1cn2nc(CC3C[C@@H](C(F)(F)F)CNC3=O)c(N3C[C@H]4C[C@@H]3CO4)nc2n1)[C@H]1CC[C@H](C)CC1 (single isomer, unassigned) [Compound 106]	> 1000	< 100
CCn1nccc1C(=O)N[C@H](c1cn2nc(CC3C[C@@H](C(F)(F)F)CNC3=O)c(N3C[C@H]4C[C@@H]3CO4)nc2n1)[C@H]1CC[C@H](C)CC1 (single isomer, unassigned) [Compound 107]	100 to 1000	< 100
CCn1nccc1C(=O)N[C@H](c1cn2nc(CC3C[C@@H](C(F)(F)F)CNC3=O)c(N3C[C@@H]4C[C@H]3CO4)nc2n1)[C@H]1CC[C@H](C)CC1 (single isomer, unassigned) [Compound 108]	< 100	< 100
CCn1nccc1C(=O)N[C@H](c1cn2nc(CC3C[C@@H](C(F)(F)F)CNC3=O)c(N3C[C@@H]4C[C@H]3CO4)nc2n1)[C@H]1CC[C@H](C)CC1 (single isomer, unassigned) [Compound 109]	100 to 1000	< 100
